US12202829B2, “Heterocyclic compound” (FIMECS, Inc., priority 2018, dated 2025)
Structures can show the parent of a compound that is named as a salt.

Tests used:
[1] = biological target: T1, human XIAP_BIR3 domain purified protein (Homo sapiens, UniProt P98170); test: XIAP binding inhibitory activity, HTRF method with b-Smac ligand; conditions: for IC50: second symbol of the cell, read-out: XIAP binding 50% inhibitory concentration (IC50 value); for inhibition at 3 µM: test compound 3 μM, first symbol of the cell, read-out: XIAP binding inhibition rate when the concentration of the test compound is 3 μM
T1 construct: purchased R & D
T1 sequence (P98170 252-356 limits assumed): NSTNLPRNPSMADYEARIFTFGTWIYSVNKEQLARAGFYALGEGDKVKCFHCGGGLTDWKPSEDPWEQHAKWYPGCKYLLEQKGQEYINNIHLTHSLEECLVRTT
Summary of the method: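 HTRF competition: human XIAP BIR3 and C-terminally biotinylated Smac peptide AVPIAQK, each diluted to 90 nM before addition, in HEPES pH 7.5 buffer with NaCl, BSA, Triton X-100. Eu-cryptate anti-His/streptavidin-XL665 detection after ≥4 h at room temperature; inhibition % from 665/615 ratio versus no-compound control.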

BCR-ABL = biological target: T2, BCR-ABL (Homo sapiens, UniProt P00519); test: In vitro degradation activity of BCR-ABL in K562 cells, western blotting; assay type: cell-based; conditions: test compound 30 μM, 24 hours, relative to DMSO control set at 100
T2 construct: BCR N-terminal part (natural fusion partner, P11274); endogenous in cells; host or cells: K562 (ECACC); the other entry of the earlier key: BCR (P11274, Breakpoint cluster region protein)
T2 sequence (P00519 with tags, fused parts or gaps): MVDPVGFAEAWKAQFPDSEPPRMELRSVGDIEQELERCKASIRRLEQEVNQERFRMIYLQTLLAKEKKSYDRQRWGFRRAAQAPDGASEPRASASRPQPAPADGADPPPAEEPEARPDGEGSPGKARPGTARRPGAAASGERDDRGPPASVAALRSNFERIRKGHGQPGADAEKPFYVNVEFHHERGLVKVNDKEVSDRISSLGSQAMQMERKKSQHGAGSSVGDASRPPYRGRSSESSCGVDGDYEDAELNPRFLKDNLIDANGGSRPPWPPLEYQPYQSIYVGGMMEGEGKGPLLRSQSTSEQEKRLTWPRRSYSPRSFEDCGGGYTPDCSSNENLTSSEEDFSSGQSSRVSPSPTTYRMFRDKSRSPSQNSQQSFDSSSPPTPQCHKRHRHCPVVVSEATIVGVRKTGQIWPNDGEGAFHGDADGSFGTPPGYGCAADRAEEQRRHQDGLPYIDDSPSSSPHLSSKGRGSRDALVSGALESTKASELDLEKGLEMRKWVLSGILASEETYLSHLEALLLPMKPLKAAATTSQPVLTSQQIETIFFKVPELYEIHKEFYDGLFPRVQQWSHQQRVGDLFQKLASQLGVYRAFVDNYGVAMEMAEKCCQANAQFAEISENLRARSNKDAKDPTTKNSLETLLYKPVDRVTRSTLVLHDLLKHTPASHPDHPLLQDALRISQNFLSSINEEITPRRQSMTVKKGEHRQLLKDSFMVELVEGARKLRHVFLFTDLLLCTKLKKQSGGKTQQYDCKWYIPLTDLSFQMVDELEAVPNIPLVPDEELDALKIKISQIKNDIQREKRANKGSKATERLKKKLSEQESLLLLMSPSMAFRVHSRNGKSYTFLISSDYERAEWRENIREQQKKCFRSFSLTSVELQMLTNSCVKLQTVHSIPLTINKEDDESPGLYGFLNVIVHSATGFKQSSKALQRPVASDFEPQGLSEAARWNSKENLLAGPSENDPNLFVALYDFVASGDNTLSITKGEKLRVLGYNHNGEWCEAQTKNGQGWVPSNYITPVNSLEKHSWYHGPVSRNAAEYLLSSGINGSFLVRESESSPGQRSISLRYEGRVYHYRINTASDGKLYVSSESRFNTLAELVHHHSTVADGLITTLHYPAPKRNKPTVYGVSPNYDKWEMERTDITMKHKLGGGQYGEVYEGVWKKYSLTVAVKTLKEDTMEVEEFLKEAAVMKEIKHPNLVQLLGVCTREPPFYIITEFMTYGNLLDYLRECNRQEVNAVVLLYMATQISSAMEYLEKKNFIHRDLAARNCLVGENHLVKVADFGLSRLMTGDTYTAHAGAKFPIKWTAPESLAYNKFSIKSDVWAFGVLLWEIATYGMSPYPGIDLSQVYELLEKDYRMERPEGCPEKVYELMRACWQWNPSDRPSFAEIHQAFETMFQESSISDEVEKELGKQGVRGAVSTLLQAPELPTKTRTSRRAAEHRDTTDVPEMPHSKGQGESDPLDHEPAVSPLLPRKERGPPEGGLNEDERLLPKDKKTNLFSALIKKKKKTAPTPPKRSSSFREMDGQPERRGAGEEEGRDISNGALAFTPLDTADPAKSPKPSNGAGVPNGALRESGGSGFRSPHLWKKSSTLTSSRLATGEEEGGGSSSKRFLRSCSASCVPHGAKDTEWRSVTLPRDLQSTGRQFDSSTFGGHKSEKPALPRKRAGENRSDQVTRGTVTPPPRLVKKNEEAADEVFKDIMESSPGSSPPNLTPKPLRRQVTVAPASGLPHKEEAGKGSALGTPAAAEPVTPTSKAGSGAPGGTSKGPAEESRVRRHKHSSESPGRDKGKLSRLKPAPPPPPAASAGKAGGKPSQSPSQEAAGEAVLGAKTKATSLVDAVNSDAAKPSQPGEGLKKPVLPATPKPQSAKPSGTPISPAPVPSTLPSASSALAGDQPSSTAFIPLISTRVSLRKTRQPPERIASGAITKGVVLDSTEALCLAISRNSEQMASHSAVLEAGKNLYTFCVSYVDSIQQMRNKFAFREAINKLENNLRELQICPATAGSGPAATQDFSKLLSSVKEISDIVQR
Method: In vitro degradation activities of BCR-ABL of the example compounds were evaluated by the following method. K562 cells were purchased from ECACC and cultured in RPMI-1640 supplemented with 10% FBS and 1% penicillin/streptomycin. K562 cells were seeded at a density of 1×10^6 cells/well in 24-well plate and treated with DMSO control or Example 80 and 81 (1, 3, 10, 30 μM), and then incubated for 24 hours. The cells were collected and lysed on ice for 30 minutes in lysis buffer (0.5% Triton X-100, 0.01 M Tris-HCl (pH 8.0), 0.15 M NaCl) containing a protease inhibitor cocktail (Sigma-Aldrich). The lysates were vortexed for 2 minutes and centrifuged for 15 minutes at 15 krpm at 4° C. Protein concentrations were determined by the BCA assay (Thermo Fisher). Proteins were separated with Nu-PAGE (Thermo Fisher) and analyzed by western blotting (standard protocol) using antibodies of anti-BCR (Cell Signaling #3902), and R-actin (Sigma #A2066). Bands (luminescent intensities) were quantified using LAS-4000 luminescent image analyzer (Fuji). The values of BCR-ABL were corrected by the internal control value of R-actin and analyzed relative to DMSO control set at 100. The remaining protein rate (%) are described as A≤25%, 25%<B≤50%, 50%<C≤75%, D>75% when the concentration of the test compound is 30 μM.

XIAP = biological target: T3, XIAP (Homo sapiens, UniProt P98170); test: In vitro degradation activity of XIAP in THP1 cells, western blotting; assay type: cell-based; conditions: test compound 10 μM, 24 hours, relative to DMSO control set at 100
T3 construct: endogenous in cells; host or cells: THP1 (ATCC)
T3 sequence (P98170 whole entry): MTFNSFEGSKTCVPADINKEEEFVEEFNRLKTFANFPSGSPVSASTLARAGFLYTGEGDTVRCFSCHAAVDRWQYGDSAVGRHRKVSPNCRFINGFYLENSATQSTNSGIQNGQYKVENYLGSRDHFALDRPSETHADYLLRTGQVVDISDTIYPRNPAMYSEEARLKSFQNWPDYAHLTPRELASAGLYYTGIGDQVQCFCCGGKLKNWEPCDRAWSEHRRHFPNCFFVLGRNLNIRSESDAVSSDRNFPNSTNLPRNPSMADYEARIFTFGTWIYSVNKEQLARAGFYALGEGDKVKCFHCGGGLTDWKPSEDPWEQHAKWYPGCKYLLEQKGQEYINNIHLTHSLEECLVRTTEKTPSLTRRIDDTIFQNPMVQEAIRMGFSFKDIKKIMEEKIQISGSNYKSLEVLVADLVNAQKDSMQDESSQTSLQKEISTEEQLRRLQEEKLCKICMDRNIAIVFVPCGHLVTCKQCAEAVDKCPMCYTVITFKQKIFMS
Method: In vitro degradation activities of XIAP of the example compounds were evaluated by the following method. THP1 cells were purchased from ATCC and cultured in RPMI-1640 supplemented with 10% FBS and 1% penicillin/streptomycin. THP1 cells were seeded at a density of 1×10^6 cells/well in 24-well plate and treated with DMSO control or Example 86 and 87 (0.001, 0.01, 0.1, 1, 10 μM), and then incubated for 24 hours. The cells were collected and lysed on ice for 30 minutes in lysis buffer (0.5% Triton X-100, 0.01 M Tris-HCl (pH 8.0), 0.15 M NaCl) containing a protease inhibitor cocktail (Sigma-Aldrich). The lysates were sonicated for 30 sec ON/30 sec OFF for ten cycles and centrifuged for 15 minutes at 15 krpm at 4° C. Protein concentrations were determined by the BCA assay (Thermo Fisher). Proteins were separated with Nu-PAGE (Thermo Fisher) and analyzed by western blotting (standard protocol) using antibodies of anti-XIAP (Cell Signaling #14334), and β-actin (Sigma #A2066). Bands (luminescent intensities) were quantified using LAS-4000 luminescent image analyzer (Fuji). The values of XIAP were corrected by the internal control value of β-actin and analyzed relative to DMSO control set at 100. The remaining protein rate (%) are described as A≤25%, 25%<B≤50%, 50%<C≤75%, D>75% when the concentration of the test compound is 10 μM.

| Structure (SMILES) | IC50 [1] [µM] | remaining protein rate (%) BCR-ABL (BCR-ABL) | inhibition at 3 µM [1] [%] | remaining protein rate (%) XIAP (XIAP) |
| --- | --- | --- | --- | --- |
| CN[C@@H](C)C(=O)N[C@H](C(=O)N1CCN(C(=O)c2c(C(=O)NCCOCCOCCOc3ccc(NC(=O)C[C@@H]4N=C(c5ccc(Cl)cc5)c5c(sc(C)c5C)-n5c(C)nnc54)cc3)c3cc(F)c(F)cc3n2C)CC1)C1CCCCC1 [Example 78, N-(2-(2-(2-(4-(2-((S)-4-(4-Chlorophenyl)-2,3,9-trimethyl-6H-thieno[3,2-f][1,2,4]triazolo[4,3-a][1,4]diazepin-6-yl)acetamido)phenoxy)ethoxy)ethoxy)ethyl)-2-(4-((S)-2-cyclohexyl-2-((S)-2-(methylamino)propanamido)acetyl)piperazine-1-carbonyl)-5,6-difluoro-1-methyl-1H-indole-3-carboxamide hydrochloride] | 0.3 to 3 |  |  |  |
| CN[C@@H](C)C(=O)N[C@H](C(=O)N1CCN(C(=O)c2c(C(=O)NCCOCCOCCOCCOc3ccc(NC(=O)C[C@@H]4N=C(c5ccc(Cl)cc5)c5c(sc(C)c5C)-n5c(C)nnc54)cc3)c3cc(F)c(F)cc3n2C)CC1)C1CCCCC1 [Example 79, N-(2-(2-(2-(2-(4-(2-((S)-4-(4-chlorophenyl)-2,3,9-trimethyl-6H-thieno[3,2-f][1,2,4]triazolo[4,3-a][1,4]diazepin-6-yl)acetamido)phenoxy)ethoxy)ethoxy)ethoxy)ethyl)-2-(4-((S)-2-cyclohexyl-2-((S)-2-(methylamino)propanamido)acetyl)piperazine-1-carbonyl)-5,6-difluoro-1-methyl-1H-indole-3-carboxamide] | 0.3 to 3 |  |  |  |
| CN[C@@H](C)C(=O)N[C@H](C(=O)N1CCN(C(=O)c2c(C(=O)NCCOCCN3CCN(c4cc(Nc5ncc(C(=O)Nc6c(C)cccc6Cl)s5)nc(C)n4)CC3)c3cc(F)c(F)cc3n2C)CC1)C1CCCCC1 [Example 80, N-(2-Chloro-6-methylphenyl)-2-((6-(4-(2-(2-(2-(4-((S)-2-cyclohexyl-2-((S)-2-(methylamino)propanamide)acetyl)piperazine-1-carbonyl)-5,6-difluoro-1-methyl-1H-indole-3-carboxamido)ethoxy)ethyl)piperazin-1-yl)-2-methylpyrimidin-4-yl)amino)thiazole-5-carboxamide] | 0.3 to 3 | C (50%<C≤75%) |  |  |
| CN[C@@H](C)C(=O)N[C@H](C(=O)N1CCN(C(=O)c2c(C(=O)NCCOCCOCCN3CCN(c4cc(Nc5ncc(C(=O)Nc6c(C)cccc6Cl)s5)nc(C)n4)CC3)c3cc(F)c(F)cc3n2C)CC1)C1CCCCC1 [Example 81, N-(2-Chloro-6-methylphenyl)-2-((6-(4-(2-(2-(2-(2-(4-((S)-2-cyclohexyl-2-((S)-2-(methylamino)propanamido)acetyl)piperazine-1-carbonyl)-5,6-difluoro-1-methyl-1H-indole-3-carboxamido)ethoxy)ethoxy)ethyl)piperazin-1-yl)-2-methylpyrimidin-4-yl)amino)thiazole-5-carboxamide trifluoroacetate] | 0.3 to 3 | D (D>75%) |  |  |
| CN[C@@H](C)C(=O)N[C@H](C(=O)N1CCN(C(=O)c2c(C(=O)NCCOCCOCCOCCN3CCN(c4cc(Nc5ncc(C(=O)Nc6c(C)cccc6Cl)s5)nc(C)n4)CC3)c3cc(F)c(F)cc3n2C)CC1)C1CCCCC1 [Example 82, N-(2-Chloro-6-methylphenyl)-2-((6-(4-(1-(2-(4-((S)-2-cyclohexyl-2-((S)-2-(methylamino)propanamido)acetyl)piperazine-1-carbonyl)-5,6-difluoro-1-methyl-1H-indol-3-yl)-1-oxo-5,8,11-trioxa-2-azatridecan-13-yl)piperazin-1-yl)-2-methylpyrimidin-4-yl)amino)thiazole-5-carboxamide Trifluoroacetate] | 0.3 to 3 |  |  |  |
| Cc1nc(Nc2ncc(C(=O)Nc3c(C)cccc3Cl)s2)cc(N2CCN(CCOCCOCCOC[C@H]3CN[C@H](C)CN3CC(=O)N3CCN(C(=O)c4cc5cc(F)c(F)cc5n4C)C[C@H]3C)CC2)n1 [Example 83, N-(2-chloro-6-methylphenyl)-2-((6-(4-(2-(2-(2-(((2R,5R)-1-(2-((R)-4-(5,6-difluoro-1-methyl-1H-indole-2-carbonyl)-2-methylpiperazin-1-yl)-2-oxoethyl)-5-methylpiperazin-2-yl)methoxy)ethoxy)ethoxy)ethyl)piperazin-1-yl)-2-methylpyrimidin-4-yl)amino)thiazole-5-carboxamide] | 3 to 30 |  |  |  |
| CN[C@@H](C)C(=O)N[C@H](C(=O)N1CCN(C(=O)c2c(C(=O)NCCOCCOCCOCC(=O)N3CCN(c4cc(Nc5ncc(C(=O)Nc6c(C)cccc6Cl)s5)nc(C)n4)CC3)c3cc(F)ccc3n2C)CC1)C1CCCCC1 [Example 84, N-(2-chloro-6-methylphenyl)-2-((6-(4-(1-(2-(4-((S)-2-cyclohexyl-2-((S)-2-(methylamino)propanamido)acetyl)piperazine-1-carbonyl)-5-fluoro-1-methyl-1H-indol-3-yl)-1-oxo-5,8,11-trioxa-2-azatridecan-13-oyl)piperazin-1-yl)-2-methylpyrimidin-4-yl)amino)thiazole-5-carboxamide] |  |  | 50 to 75 |  |
| CN[C@@H](C)C(=O)N[C@H](C(=O)N1CCN(C(=O)c2c(C(=O)NCCOCCOCC(=O)N3CCN(c4cc(Nc5ncc(C(=O)Nc6c(C)cccc6Cl)s5)nc(C)n4)CC3)c3cc(F)ccc3n2C)CC1)C1CCCCC1 [Example 85, N-(2-chloro-6-methylphenyl)-2-((6-(4-(2-(2-(2-(2-(4-((S)-2-cyclohexyl-2-((S)-2-(methylamino)propanamido)acetyl)piperazine-1-carbonyl)-5-fluoro-1-methyl-1H-indole-3-carboxamido)ethoxy)ethoxy)acetyl)piperazin-1-yl)-2-methylpyrimidin-4-yl)amino)thiazole-5-carboxamide] |  |  | 50 to 75 |  |
| CN[C@@H](C)C(=O)N[C@H](C(=O)N1CCN(C(=O)c2c(C(=O)NCCOCCOCCNC(=O)c3c(C(=O)N4CCN(C(=O)[C@@H](NC(=O)[C@H](C)NC)C5CCCCC5)CC4)n(C)c4ccc(F)cc34)c3cc(F)ccc3n2C)CC1)C1CCCCC1 [Example 86, N,N′-((Ethan-1,2-diylbis(oxy))bis(ethan-2,1-diyl))bis(2-(4-((S)-2-cyclohexyl-2-((S)-2-(methylamino)propanamido)acetyl)piperazine-1-carbonyl)-5-fluoro-1-methyl-1H-indole-3-carboxamide) bistrifluoroacetate] | < 0.3 |  | > 75 | C (50%<C≤75%) |
| CN[C@@H](C)C(=O)N[C@H](C(=O)N1CCN(C(=O)c2cc3cc(F)ccc3n2CC(=O)NCCOCCNC(=O)Cn2c(C(=O)N3CCN(C(=O)[C@@H](NC(=O)[C@H](C)NC)C4CCCCC4)CC3)cc3cc(F)ccc32)CC1)C1CCCCC1 [Example 87, (S)—N—((S)-1-Cyclohexyl-2-(4-(1-(2-((2-(2-(2-(2-(4-((R)-2-cyclohexyl-2-((R)-2-(methylamino)propanamide)acetyl)piperazine-1-carbonyl)-5-fluoro-1H-indol-1-yl)acetamide)ethoxy)ethyl)amino)-2-oxoethyl)-5-fluoro-1H-indole-2-carbonyl)piperazin-1-yl)-2-oxoethyl)-2-(methylamino)propanamide bistrifluoroacetate] |  |  | > 75 | C (50%<C≤75%) |
